Laboratory results from patent US20260250318A1, “COMPOSITIONS AND METHODS FOR CROSSING THE BLOOD BRAIN BARRIER” (VOYAGER THERAPEUTICS, INC., priority 2022, published 2026).

Legend:
[1] = system: brain; assay: Matured TTM-001 and TTM-002 variants, NGS enrichment in mouse brain; assay type: in vivo, mice; conditions: relative to AAV9 control
[2] = system: brains, heart, liver, muscle, and DRG of the NHPs; assay: Maturation of TTM-001 and TTM-002 capsids, NGS enrichment in NHP tissues; assay type: in vivo; conditions: relative to AAV9 control
Outline: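 Variants carry mutations within and flanking the loop IV peptide insert: positions 450–466 were triplet-randomized, while positions 449–466 received low-frequency point mutations. The combined pool went into two NHPs, and each peptide was scored by NGS enrichment ratio against AAV9.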

[3] = NGS fold-enrichment of matured AAV capsid variants, NHP brain, RNA
[4] = NGS fold-enrichment, brain of mice
[5] = NGS fold-enrichment, mouse brain
[6] = NGS fold-enrichment of RNA, NHP brain
[7] = NGS fold-enrichment, DRG of NHPs
[8] = NGS fold-enrichment, NHP liver DNA
[9] = NGS fold-enrichment, NHP liver RNA
[10] = NGS fold-enrichment, NHP muscle
[11] = NGS fold-enrichment, RNA, brain of NHPs
[12] = NGS fold-enrichment, heart of NHPs
[13] = NGS fold-enrichment, liver DNA of NHPs
[14] = NGS fold-enrichment, liver RNA of NHPs
[15] = NGS fold-enrichment, muscle of NHPs

Sequence	Fold Enrichment relative to AAV9, Brain (Mouse) ([1]; mouse brain) [fold]	Fold Enrichment relative to AAV9, Brain (NHP) [2, 3] [fold]	Fold Enrichment relative to AAV9, DRG (NHP) ([2]; NHP DRG) [fold]	Fold Enrichment relative to AAV9, Heart (NHP) ([2]; NHP heart) [fold]	Fold Enrichment relative to AAV9, Liver DNA (NHP) ([2]; NHP liver, DNA) [fold]	Fold Enrichment relative to AAV9, Liver RNA (NHP) ([2]; NHP liver, RNA) [fold]	Fold Enrichment relative to AAV9, Muscle (NHP) ([2]; NHP muscle) [fold]	Fold Enrichment relative to AAV9, Brain (Mouse) [1, 4] [fold]	Fold Enrichment relative to AAV9, DRG (NHP) [2, 7] [fold]	Fold Enrichment relative to AAV9, Brain (NHP) [2, 11] [fold]	Fold Enrichment relative to AAV9, Heart (NHP) [2, 12] [fold]	Fold Enrichment relative to AAV9, Liver DNA (NHP) [2, 13] [fold]	Fold Enrichment relative to AAV9, Liver RNA (NHP) [2, 14] [fold]	Fold Enrichment relative to AAV9, Muscle (NHP) [2, 15] [fold]	other results
KTINGSGSPHSKNQWQQT	65.506	50.800	0.000	0.044	0.324	0.111	0.047	–	–	–	–	–	–	–	–
KTINGSGSPHSKNRDQQT	100.300	51.830	0.000	0.008	0.138	0.480	0.000	–	–	–	–	–	–	–	–
KTINGSGSPHSKRLEQQT	71.704	53.512	0.000	0.118	0.292	0.161	0.003	–	–	–	–	–	–	–	–
KTINGSGSPHSKRMEQQT	81.769	50.177	0.000	0.000	0.208	1.327	0.000	–	–	–	–	–	–	–	–
KTINGSGSPHSKRPEQQT	–	–	–	–	–	–	–	50.319	0.000	80.418	0.013	0.361	0.149	0.000	Fold Enrichment relative to AAV9, Brain (Mouse) [1, 5]: 50.319 fold; Fold Enrichment relative to AAV9, Brain (NHP) [2, 6]: 80.418 fold; Fold Enrichment relative to AAV9, DRG (NHP) ([2]; NGS fold-enrichment, NHP DRG): 0.000 fold; Fold Enrichment relative to AAV9, Heart (NHP) ([2]; NGS fold-enrichment, NHP heart): 0.013 fold; Fold Enrichment relative to AAV9, Liver DNA (NHP) [2, 8]: 0.361 fold; Fold Enrichment relative to AAV9, Liver RNA (NHP) [2, 9]: 0.149 fold; Fold Enrichment relative to AAV9, Muscle (NHP) [2, 10]: 0.000 fold
KTINGSGSPHSKSQNQHI	–	–	–	–	–	–	–	76.025	0.000	59.438	0.099	0.108	0.111	0.000	–
KTINGSGSPHSKSQNVQT	–	–	–	–	–	–	–	56.672	0.000	66.627	0.190	0.188	0.202	0.000	–
KTINGSGSPHSKSQSQLT	125.577	55.430	0.000	0.035	0.013	0.050	0.000	–	–	–	–	–	–	–	–
KTINGSGSPHSKSQSQQI	–	–	–	–	–	–	–	64.027	0.000	61.870	0.000	0.175	0.200	0.000	–
KTINGSGSPHSKSQTQQN	–	–	–	–	–	–	–	54.021	0.000	104.474	0.131	0.038	0.084	0.000	Fold Enrichment relative to AAV9, Brain (Mouse) [1, 5]: 54.021 fold; Fold Enrichment relative to AAV9, Brain (NHP) [2, 6]: 104.474 fold; Fold Enrichment relative to AAV9, DRG (NHP) ([2]; NGS fold-enrichment, NHP DRG): 0.000 fold; Fold Enrichment relative to AAV9, Heart (NHP) ([2]; NGS fold-enrichment, NHP heart): 0.131 fold; Fold Enrichment relative to AAV9, Liver DNA (NHP) [2, 8]: 0.038 fold; Fold Enrichment relative to AAV9, Liver RNA (NHP) [2, 9]: 0.084 fold; Fold Enrichment relative to AAV9, Muscle (NHP) [2, 10]: 0.000 fold
KTINGSGSPHSKTKSQQT	–	–	–	–	–	–	–	83.923	0.000	70.891	0.568	0.496	0.418	0.045	–
KTINGSGSPHSKTQNHQN	64.846	55.551	0.000	0.048	0.099	0.000	0.000	–	–	–	–	–	–	–	–
KTINGSGSPHSKVPNLQT	50.474	57.046	0.000	0.029	0.082	0.459	0.000	–	–	–	–	–	–	–	–
KTINGSGSPHSYHVNQQT	179.489	50.486	0.000	0.056	0.275	0.528	0.059	–	–	–	–	–	–	–	–
KTINGSGSPHTKAQNPPT	–	–	–	–	–	–	–	–	–	–	–	–	–	–	Fold Enrichment relative to AAV9, Brain (Mouse) [1, 5]: 34.425 fold; Fold Enrichment relative to AAV9, Brain (NHP) [2, 6]: 147.061 fold; Fold Enrichment relative to AAV9, DRG (NHP) ([2]; NGS fold-enrichment, NHP DRG): 0.000 fold; Fold Enrichment relative to AAV9, Heart (NHP) ([2]; NGS fold-enrichment, NHP heart): 0.727 fold; Fold Enrichment relative to AAV9, Liver DNA (NHP) [2, 8]: 0.000 fold; Fold Enrichment relative to AAV9, Liver RNA (NHP) [2, 9]: 0.000 fold; Fold Enrichment relative to AAV9, Muscle (NHP) [2, 10]: 0.000 fold
KTINGSGSPHTKAQNPQS	–	–	–	–	–	–	–	62.508	0.000	72.594	0.000	0.130	0.000	0.000	–
KTINGSGSSHSKAQNQQT	67.731	54.292	1.709	1.870	0.458	1.075	1.287	–	–	–	–	–	–	–	–
KTINGSVSPHGKAQNQLT (peptide inserted in AAV capsid)	–	–	–	–	–	–	–	51.358	0.000	73.525	0.061	0.053	0.000	0.067	–
KTINGTGSPHSKAPNQLT	86.939	58.738	0.000	0.000	0.035	0.229	0.000	–	–	–	–	–	–	–	–
KTINGTGSPHSKAQNHQI	–	–	–	–	–	–	–	54.281	0.171	77.089	0.000	0.166	0.000	0.000	Fold Enrichment relative to AAV9, Brain (Mouse) [1, 5]: 54.281 fold; Fold Enrichment relative to AAV9, Brain (NHP) [2, 6]: 77.089 fold; Fold Enrichment relative to AAV9, DRG (NHP) ([2]; NGS fold-enrichment, NHP DRG): 0.171 fold; Fold Enrichment relative to AAV9, Heart (NHP) ([2]; NGS fold-enrichment, NHP heart): 0.000 fold; Fold Enrichment relative to AAV9, Liver DNA (NHP) [2, 8]: 0.166 fold; Fold Enrichment relative to AAV9, Liver RNA (NHP) [2, 9]: 0.000 fold; Fold Enrichment relative to AAV9, Muscle (NHP) [2, 10]: 0.000 fold
